Patent EP0048614B1, “1-N-acylated and 1-N-alkylated derivatives of 4-0-substituted -2-deoxystreptamine aminoglycosides” (ELI LILLY AND COMPANY, priority 1980, dated 1982)

Key:
[1] = test system: Staphylococcus aureus 3055; assay: Subcutaneous therapy of experimental bacterial infection in mice (ED50); type: in vivo; details: Staphylococcus aureus, 3055, sc; mg/kg × 2 subcutaneous doses at 1 and 5 hours post infection; mice challenged with 68.1 LD50's; read-out: Effective Dose (ED50)
Method: Table II illustrates the effective dose (ED50, the effective dose to protect 50 percent of the test animals) for representative compounds of this invention against an experimental bacterial infection in mice.
The ED50 values were determined as described by W. E. Wick et al., Journal of Bacteriology, 81 [No. 2], 233-235 (1961).

[2] = test system: Klebsiella pneumoniae X26; assay: MIC, standard agar dilution test; type: cell-based; details: Klebsiella pneumoniae X26; agar dilution; read-out: Minimum Inhibitory Concentration
Excerpt: (§1) The antibacterial activity of the deprotected compounds of this invention is illustrated by the following in vitro and in vivo test data obtained with representative compounds. In Table I, the minimum inhibitory concentration (MIC) for representative compounds against a wide range of gram-positive and gram-negative bacteria is presented. The MIC values were obtained by the standard agar dilution test.

[3] = test system: Enterobacter aerogenes EB17; assay: MIC, standard agar dilution test; type: cell-based; details: Klebsiella aerogenes; Enterobacter aerogenes EB17; agar dilution; read-out: Minimum Inhibitory Concentration
Excerpt: as §1

Proteus morganii PR15 = assay: MIC, standard agar dilution test; type: cell-based; details: Morganella morganii; Proteus morganii PR15; agar dilution; read-out: Minimum Inhibitory Concentration
Excerpt: as §1

[4] = test system: Klebsiella pneumoniae KAE; assay: MIC, standard agar dilution test; type: cell-based; details: Klebsiella pneumoniae KAE; agar dilution; read-out: Minimum Inhibitory Concentration
Excerpt: as §1

[5] = test system: Staphylococcus epidermidis EPI1; assay: MIC, standard agar dilution test; type: cell-based; details: Staphylococcus epidermidis, EPI1; read-out: Minimum Inhibitory Concentration
Excerpt: as §1

Hemophilus influenzae 76 = assay: MIC, standard agar dilution test; type: cell-based; details: Haemophilus influenzae, Hemophilus influenzae 76, read-out: Minimum Inhibitory Concentration
Excerpt: as §1

[6] = test system: Salmonella heidelberg X514; assay: MIC, standard agar dilution test; type: cell-based; details: Salmonella enterica; Salmonella heidelberg X514; agar dilution; read-out: Minimum Inhibitory Concentration
Excerpt: as §1

Proteus inconstans PR33 = assay: MIC, standard agar dilution test; type: cell-based; details: Providencia alcalifaciens; Proteus inconstans PR33; agar dilution; read-out: Minimum Inhibitory Concentration
Excerpt: as §1

[7] = test system: Streptococcus pneumoniae Park I; assay: MIC, standard agar dilution test; type: cell-based; details: Streptococcus pneumoniae; read-out: Minimum Inhibitory Concentration
Excerpt: as §1

Shigella sonnei N9 = assay: MIC, standard agar dilution test; type: cell-based; details: read-out: Minimum Inhibitory Concentration
Excerpt: as §1

[8] = test system: Citrobacter freundii CF17; assay: MIC, standard agar dilution test; type: cell-based; details: Citrobacter freundii CF17; agar dilution; read-out: Minimum Inhibitory Concentration
Excerpt: as §1

[9] = test system: Streptococcus group D X66; assay: MIC, standard agar dilution test; type: cell-based; details: DX66; Streptococcus group D X66; agar dilution; read-out: Minimum Inhibitory Concentration
Excerpt: as §1

[10] = test system: Salmonella typhimurium 1335; assay: MIC, standard agar dilution test; type: cell-based; details: Salmonella enterica; Salmonella typhimurium 1335; agar dilution; read-out: Minimum Inhibitory Concentration
Excerpt: as §1

[11] = test system: Enterobacter aerogenes X68; assay: MIC, standard agar dilution test; type: cell-based; details: Klebsiella aerogenes, Enterobacter aerogenes X68, read-out: Minimum Inhibitory Concentration
Excerpt: as §1

[12] = test system: Bordetella bronchiseptica 16; assay: MIC, standard agar dilution test; type: cell-based; details: Bordetella bronchiseptica 16; agar dilution; read-out: Minimum Inhibitory Concentration
Excerpt: as §1

[13] = test system: Staphylococcus aureus S13E; assay: MIC, standard agar dilution test; type: cell-based; details: read-out: Minimum Inhibitory Concentration
Excerpt: as §1

[14] = test system: Hemophilus influenzae C.L.; assay: MIC, standard agar dilution test; type: cell-based; details: Haemophilus influenzae, Hemophilus influenzae C.L., read-out: Minimum Inhibitory Concentration
Excerpt: as §1

Serratia marcescens X99 = assay: MIC, standard agar dilution test; type: cell-based; details: Serratia marcescens X99, read-out: Minimum Inhibitory Concentration
Excerpt: as §1

[15] = test system: Pseudomonas aeruginosa X528; assay: MIC, standard agar dilution test; type: cell-based; details: Pseudomonas aeruginosa X528; agar dilution; read-out: Minimum Inhibitory Concentration
Excerpt: as §1

[16] = test system: Staphylococcus epidermidis EPI2; assay: MIC, standard agar dilution test; type: cell-based; details: Staphylococcus epidermidis EPI2; agar dilution; read-out: Minimum Inhibitory Concentration
Excerpt: as §1

Serratia marcescens SE3 = assay: MIC, standard agar dilution test; type: cell-based; details: Serratia marcescens SE3; agar dilution; read-out: Minimum Inhibitory Concentration
Excerpt: as §1

[17] = test system: Staphylococcus aureus X1.1; assay: MIC, standard agar dilution test; type: cell-based; details: Staphylococcus aureus X1.1; agar dilution; read-out: Minimum Inhibitory Concentration
Excerpt: as §1

Escherichia coli TEM = assay: MIC, standard agar dilution test; type: cell-based; details: read-out: Minimum Inhibitory Concentration
Excerpt: as §1

[18] = test system: Staphylococcus aureus V41; assay: MIC, standard agar dilution test; type: cell-based; details: Staphylococcus aureus V41; agar dilution; read-out: Minimum Inhibitory Concentration
Excerpt: as §1

Escherichia coli EC14 = assay: MIC, standard agar dilution test; type: cell-based; details: Escherichia coli EC14; agar dilution; read-out: Minimum Inhibitory Concentration
Excerpt: as §1

[19] = test system: Pseudomonas aeruginosa Ps18; assay: MIC, standard agar dilution test; type: cell-based; details: Pseudomonas aeruginosa Ps18; agar dilution; read-out: Minimum Inhibitory Concentration
Excerpt: as §1

[20] = test system: Streptococcus pyogenes C203; assay: MIC, standard agar dilution test; type: cell-based; details: Streptococcus pyogenes C203; agar dilution; read-out: Minimum Inhibitory Concentration
Excerpt: as §1

[21] = test system: Staphylococcus aureus X400; assay: MIC, standard agar dilution test; type: cell-based; details: Staphylococcus aureus X400, read-out: Minimum Inhibitory Concentration
Excerpt: as §1

[22] = test system: Streptococcus group D 9960; assay: MIC, standard agar dilution test; type: cell-based; details: D9960; Streptococcus group D 9960; agar dilution; read-out: Minimum Inhibitory Concentration
Excerpt: as §1

Proteus rettgeri PR7 = assay: MIC, standard agar dilution test; type: cell-based; details: Providencia rettgeri, Proteus rettgeri PR7, read-out: Minimum Inhibitory Concentration
Excerpt: as §1

[23] = test system: Enterobacter cloacae 265A; assay: MIC, standard agar dilution test; type: cell-based; details: Enterobacter cloacae 265A; agar dilution; read-out: Minimum Inhibitory Concentration
Excerpt: as §1

[24] = test system: Enterobacter aerogenes C32; assay: MIC, standard agar dilution test; type: cell-based; details: Klebsiella aerogenes; Enterobacter aerogenes C32; agar dilution; read-out: Minimum Inhibitory Concentration
Excerpt: as §1

Proteus rettgeri C24 = assay: MIC, standard agar dilution test; type: cell-based; details: Providencia rettgeri; Proteus rettgeri C24; agar dilution; read-out: Minimum Inhibitory Concentration
Excerpt: as §1

[25] = test system: Pseudomonas aeruginosa X239; assay: MIC, standard agar dilution test; type: cell-based; details: Pseudomonas aeruginosa X239; agar dilution; read-out: Minimum Inhibitory Concentration
Excerpt: as §1

Escherichia coli N10 = assay: MIC, standard agar dilution test; type: cell-based; details: Escherichia coli, N10, Escherichia coli N10; agar dilution; read-out: Minimum Inhibitory Concentration
Excerpt: as §1

Enterobacter cloacae EB5 = assay: MIC, standard agar dilution test; type: cell-based; details: Enterobacter cloacae EB5; agar dilution; read-out: Minimum Inhibitory Concentration
Excerpt: as §1

Escherichia coli X563 = assay: Standard disc-plate method, zone of inhibition against apramycin-resistant strain; type: cell-based; details: apramycin-resistant E. coli X563, one value for each of two test runs per compound
Excerpt: Table III, shown below, illustrates the in vitro activity of 1-N-(S-y-amino-a-hydroxybutyryl)apramycin, 1-N-(RS-y-amino-a-hydroxybutyryl)apramycin, and 1-N-(S-y-amino-a-hydroxybutyryl)nebramine against an apramycin resistant strain of E. coli. The results below were obtained using the standard disc-plate method. The numerical values are the diameters in millimeters of the zones of inhibition observed against this bacterium. Compounds substituted with the y-amino-a-hydroxybutyryl and analogous side chains are useful in treating infections caused by apramycin resistant bacteria such as the one above.
The test organism (E. coli X563) used in the experiments summarized in Table III is resistant to apramycin due to a 3-N-acetyltransferase which enzymatically inactivates apramycin.

CCNC1CC(N)C(OC2OC3C(CC2N)OC(OC2OC(CO)C(N)C(O)C2O)C(NC)C3O)C(O)C1O (stereo not drawn) [Test Compound 4, 1-N-ethylapramycin]
11.3 mm: zone of inhibition at 15 µg/disc (Escherichia coli X563; Escherichia coli, X563, read-out: Zone of Inhibition (diameter in mm), 15 mcg/disc)
4.5 mg/kg: ED50 [1]
4 µg/mL: MIC [16]
64 µg/mL: MIC [12] | MIC (Serratia marcescens X99) | MIC (Proteus rettgeri C24)
128 µg/mL: MIC (Proteus inconstans PR33)
8 µg/mL: MIC [2] | MIC [5] | MIC [13] | MIC [17] | MIC (Escherichia coli TEM) | MIC [18] | MIC (Proteus rettgeri PR7) | MIC [24] | MIC [25]
16 µg/mL: MIC [3] | MIC [4] | MIC (Hemophilus influenzae 76) | MIC [7] | MIC (Shigella sonnei N9) | MIC [8] | MIC [11] | MIC [14] | MIC [15] | MIC [20] | MIC [21] | MIC (Escherichia coli N10)
12.1 mm: Zone of Inhibition (diameter in mm) (Escherichia coli X563; 15 mcg/disc, listed as 5)
> 128 µg/mL: MIC [9] | MIC (Serratia marcescens SE3) | MIC [22]
32 µg/mL: MIC (Proteus morganii PR15) | MIC [6] | MIC [10] | MIC (Escherichia coli EC14) | MIC [19] | MIC [23] | MIC (Enterobacter cloacae EB5)
